Assay results reported in US6620961B1, “Biarylalkylenecarbamic acid derivatives and bacteriocides for agricultural and horticultural use” (Kumiai Chemical Industry Co., Ltd., priority 1997, dated 2003).

Assays:
[1] = test system: Venturia inaequalis; experiment: Test for Preventive Effect on Apple Scab; type: in vivo; set-up: key: A: No diseased area; B: Diseased area of less than 25%; C: Diseased area of at least 25% but less than 50%; Diseased area of at least 50%; conditions: 14 days after inoculation; for Evaluation (diseased areas of the upper two of the inoculated leaves): apple seedlings, wettable powder at 500 ppm active ingredient, preventive; for Evaluation (diseased area of the upper two inoculated leaves): apple seedlings (Kogyoku), 500 ppm active ingredient, 20 ml per pot
Procedure: [table] Test for Preventive Effect on Apple Scab 5 apple seeds (variety: Kogyoku) were sown in each 9 cm×9 cm polyvinyl chloride pot and grown in a greenhouse for 20 days. […] Then, the seedlings were inoculated with Venturia inaequalis spores in suspension by spraying and immediately placed in a moist chamber at 22° C. for 48 hours. Thereafter, the seedlings were placed in a greenhouse for development of the disease. 14 days after the inoculation, the diseased areas of the upper two of the inoculated leaves were observed and evaluated on the basis of the standards shown in Table 59.

[2] = test system: Erysiphe graminis; experiment: Test for Preventive Effect on Wheat Powdery Mildew; type: in vivo; set-up: key: A: No diseased area; B: Diseased area of less than 25%; C: Diseased area of at least 25% but less than 50%; Diseased area of at least 50%; conditions: wheat seedlings (Norin-61-go), 500 ppm active ingredient, 10 ml per pot, 10 days after inoculation
Procedure: [table] Test for Preventive Effect on Wheat Powdery Mildew 9 wheat seeds (variety: […] Then, the seedlings were inoculated with […] graminis spores in suspension and placed in a greenhouse at 25 to 30° C. 10 days after the inoculation, the total diseases area of the first leaves in each pot was observed and evaluated on the basis of the standards shown in Table 59. The results are shown in Tables 67 to 71.

Compound | Evaluation (diseased areas of the upper two of the inoculated leaves) [1] | Evaluation (total diseased area of the first leaves in each pot) [2] | Evaluation (diseased area of the upper two inoculated leaves) [1]
C=CCN(Cc1cccc(-c2ccccc2)c1)C(=O)OC [1-168] | A | A | –
C#CCN(Cc1cccc(-c2ccccc2)c1)C(=O)OC [1-178, Methyl N-(3-phenylbenzyl)-N-(2-propynyl)carbamate] | A | A | –
COCN(Cc1cccc(-c2ccccc2)c1)C(=O)OC [1-192, Methyl N-methoxymethyl-N-(3-phenylbenzyl)carbamate] | A | A | –
COCN(Cc1cccc(-c2ccccc2C)c1)C(=O)OC [1-193] | A | B (Diseased area of less than 25%) | –
COCN(Cc1cccc(-c2cccc(C)c2)c1)C(=O)OC [1-194] | A | A | –
COCN(Cc1cccc(-c2ccc(C)cc2)c1)C(=O)OC [1-195] | A | A | –
COCN(Cc1cccc(-c2ccc(OC)cc2)c1)C(=O)OC [1-198] | A | A | –
COCN(Cc1cccc(-c2ccc(F)cc2)c1)C(=O)OC [1-201] | A | A | –
COCN(Cc1cccc(-c2ccccc2Cl)c1)C(=O)OC [1-202] | A | A | –
CN(C)C(=O)NCc1cccc(-c2ccccc2)c1 [1-262] | B (Diseased area of less than 25%) | – | –
COC(=O)N(Cc1cccc(-c2ccccc2)c1)OC [1-264] | A | A | –
COC(=O)N(Cc1cccc(-c2cccc(Cl)c2)c1)OC [1-275] | A | A | –
COC(=O)N(Cc1cccc(-c2cccc(C(F)(F)F)c2)c1)OC [1-277] | A | A | –
COC(=O)NCc1ccc(F)c(-c2ccccc2)c1 [2-17] | A | B (Diseased area of less than 25%) | –
COC(=O)NCc1ccc(F)c(-c2ccc(Cl)cc2)c1 [2-21] | A | B (Diseased area of less than 25%) | –
COC(=O)NCc1ccc(F)c(-c2cccc(C)c2)c1 [2-22] | A | B (Diseased area of less than 25%) | –
COC(=O)NCc1cc(C)cc(-c2ccc(Cl)cc2)c1 [2-95] | A | A | –
COC(=O)NCc1cc(C)cc(-c2ccc(C)cc2)c1 [2-97] | A | A | –
CCc1ccc(-c2ccc(F)c(CNC(=O)OC)c2)cc1 [2-112] | A | B (Diseased area of less than 25%) | –
COC(=O)NCc1cc(-c2ccc(C(C)C)cc2)ccc1F [2-114] | A | A | –
COC(=O)NCc1cc(-c2ccc(C(F)(F)F)cc2)ccc1OC [2-344] | – | – | A
COC(=O)NCc1cc(-c2cccc(C(F)(F)F)c2)ccc1OC(F)F [2-365] | – | B (Diseased area of less than 25%) | A
COC(=O)NCc1cc(-c2ccc(F)c(F)c2)ccc1F [2-412] | – | A | A
COC(=O)NCc1cc(-c2ccc(C(C)=O)cc2)ccc1Cl [2-451] | – | – | B (Diseased area of less than 25%)
COC(=O)NCc1cc(-c2ccc(F)c(F)c2)ccc1Cl [2-461] | – | A | A
COC(=O)NCc1cc(-c2ccc(F)c(Cl)c2)ccc1Cl [2-465] | – | A | A
